The source of these data is patent US20020128231A1 (priority 2000, published 2002).

One data set deals with P-glycoprotein (Homo sapiens, UniProt P08183). The data set is described as follows: Rhodamine 123 transport assay across HCT-8 cell monolayers. As to conditions: compound 10 μM; Rh123 15 μM; HCT-8 cells.
For data set [1], the system named is MDR1-expressing NIH 3T3 cells. The data set is described as follows: Cytotoxicity (MTT) assay: modulation of drug cytotoxicity in multidrug resistant cells. The settings on record: compound 5 μM; 50 nM doxorubicin; 72 hours; MTT.
Procedure: Cytotoxicity assays were performed with many of the compounds of Formula I to verify their usefulness as inhibitors of P-gp.
Parental NIH3T3 Swiss mouse embryo cell line was obtained from American Type Culture Collection and was grown in Dulbecco's Modified Eagles Medium supplemented with 4.5 g/L glucose, 10% fetal bovine serum, 2 mM L-glutamine, and 0.01 mg/ml gentamicin. […] All cells were maintained in a humidified atmosphere with 5% CO2 at 37° C.
Parental and MDR1-expressing NIH 3T3 cells were plated at a density of 2.5-3.0×10^3 cells/well in 96-well microtiter plates and were exposed to 50 nM of doxoriubicin, 7.5 nM vinblastine, 75 nM colchicine or 300 nM paclitaxel for 72 hours. Cell viability was determined with the colorimetric MTT (3-(4,5-dimethylthiazol-2-yl)-2,5-diphenyl tetrazolium) assay as previously described (Mosmann T., J. Immunol. Methods, 65: 55-63 (1983); Hansen M. B. et al., J. Immunol. Methods, 119: 203-210 (1989)) and the absorbance was measured at 570 nm.

Chain of P-glycoprotein (P08183 whole entry): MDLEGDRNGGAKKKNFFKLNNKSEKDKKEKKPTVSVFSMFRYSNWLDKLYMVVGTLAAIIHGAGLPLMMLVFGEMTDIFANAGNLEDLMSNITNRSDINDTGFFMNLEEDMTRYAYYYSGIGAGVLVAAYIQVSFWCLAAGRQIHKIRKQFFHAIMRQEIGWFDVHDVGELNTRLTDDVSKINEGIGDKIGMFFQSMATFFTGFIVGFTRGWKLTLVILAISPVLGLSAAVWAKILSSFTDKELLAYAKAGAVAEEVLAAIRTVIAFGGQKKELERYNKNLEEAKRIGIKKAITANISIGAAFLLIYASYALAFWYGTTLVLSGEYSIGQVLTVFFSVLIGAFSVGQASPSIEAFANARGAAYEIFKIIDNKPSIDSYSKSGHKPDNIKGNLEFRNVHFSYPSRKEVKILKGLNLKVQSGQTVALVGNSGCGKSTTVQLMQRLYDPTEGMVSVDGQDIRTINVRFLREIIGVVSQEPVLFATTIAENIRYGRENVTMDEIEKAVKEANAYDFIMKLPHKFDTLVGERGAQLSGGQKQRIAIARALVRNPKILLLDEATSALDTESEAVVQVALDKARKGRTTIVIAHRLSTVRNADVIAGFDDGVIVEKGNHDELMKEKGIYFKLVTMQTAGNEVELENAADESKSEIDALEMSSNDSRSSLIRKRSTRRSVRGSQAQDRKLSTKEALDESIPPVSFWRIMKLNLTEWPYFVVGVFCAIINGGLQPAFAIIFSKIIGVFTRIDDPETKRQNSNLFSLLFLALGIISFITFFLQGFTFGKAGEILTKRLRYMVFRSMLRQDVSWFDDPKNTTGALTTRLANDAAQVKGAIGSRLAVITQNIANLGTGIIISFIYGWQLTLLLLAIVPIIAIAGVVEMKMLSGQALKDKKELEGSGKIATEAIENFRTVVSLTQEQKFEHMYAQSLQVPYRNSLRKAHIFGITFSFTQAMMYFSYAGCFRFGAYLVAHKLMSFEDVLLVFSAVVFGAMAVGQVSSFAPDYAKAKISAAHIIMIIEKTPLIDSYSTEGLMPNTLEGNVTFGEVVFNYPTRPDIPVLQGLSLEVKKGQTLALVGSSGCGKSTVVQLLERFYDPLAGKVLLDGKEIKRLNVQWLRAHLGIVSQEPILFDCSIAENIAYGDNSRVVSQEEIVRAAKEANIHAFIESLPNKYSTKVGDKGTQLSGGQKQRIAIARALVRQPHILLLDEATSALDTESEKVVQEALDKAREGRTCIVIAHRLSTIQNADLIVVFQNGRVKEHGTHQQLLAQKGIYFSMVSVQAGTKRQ
Procedure for P-glycoprotein: The human ileocecal adenocarcinoma cell line HCT-8 was grown in RPMI-1640 medium supplemented with 10% horse serum, 1 mM sodium pyruvate and 0.01 mg/ml gentamicin. All cells were maintained in a humidified atmosphere with 5% CO2 at 37° C.
Rhodamine 123 transport was examined as previously described (Hunter J. et al., Simmons, Br. J. Cancer, 64: 437444 (1991); Kim A. E. et al., J. Pharm. Exp. Ther., 286: 1439-1445 (1998)) using HCT-8 cells. Particularly, cells were grown in 6 well Corning Transwell dishes until a tight monolayer was formed. Rh123 was added at a final concentration of 15 μM to the basal or apical compartments and 200 μl samples were taken at the indicated times from the opposite chamber. Fluorescence of Rh123 in the media samples was measured using a fluorescence plate reader with an excitation wavelength of 485 nm and an emission wavelength of 530 nm.

Turning to `COc1ccc(C2c3cc(OC)c(OC)cc3C(CCNC(=O)c3ccc(C(C)(C)C)cc3)C2CNC(=O)c2ccc(C(C)(C)C)cc2)cc1OC` (stereo not drawn) [AV-259], the “% Inhibition of R123 Transport” value at P-glycoprotein came to 84.87%. Moreover, in data set [1], the “Modulation of Drug Resistance (percentage increase in doxorubicin cytotoxicity in the presence of the compounds versus in their absence)” value worked out at 3.9%.
With `COc1ccc(C2c3cc(OC)c(OC)cc3C(CCNC(=O)c3ccc(OC(F)(F)F)cc3)C2CNC(=O)c2ccc(OC(F)(F)F)cc2)cc1OC` (stereo not drawn) [AV-260], the “% Inhibition of R123 Transport” value at P-glycoprotein was 73.84%. Besides, in data set [1], the “Modulation of Drug Resistance (percentage increase in doxorubicin cytotoxicity in the presence of the compounds versus in their absence)” value is 2.1%.
Taken in the same sequence, the figures for `CCCc1ccc(C(=O)NCCC2c3cc(OC)c(OC)cc3C(c3ccc(OC)c(OC)c3)C2CNC(=O)c2ccc(CCC)cc2)cc1` (stereo not drawn) [AV-262] were 83.47% and 18.0%.
On to `COc1ccc(C2c3cc(OC)c(OC)cc3C(CCNC(=O)c3ccc(Br)cc3)C2CNC(=O)c2ccc(Br)cc2)cc1OC` (stereo not drawn) [AV-263], for which the “% Inhibition of R123 Transport” value on P-glycoprotein is 80.78%. In data set [1], the “Modulation of Drug Resistance (percentage increase in doxorubicin cytotoxicity in the presence of the compounds versus in their absence)” value is recorded as 12.2%.
For the compound `COc1ccc(C2c3cc(OC)c(OC)cc3C(CCNC(=O)c3ccccc3)C2CNC(=O)c2ccccc2)cc1OC` (stereo not drawn) [AV-264], the “% Inhibition of R123 Transport” value at P-glycoprotein is recorded as 83.51%. In addition, the “Modulation of Drug Resistance (percentage increase in doxorubicin cytotoxicity in the presence of the compounds versus in their absence)” value in data set [1] was 6.3%.
As for `COc1ccc(C2c3cc(OC)c(OC)cc3C(CCNC(=O)c3ccccc3OC)C2CNC(=O)c2ccccc2OC)cc1OC` (stereo not drawn) [AV-265], the “% Inhibition of R123 Transport” value on P-glycoprotein was found to be 93.0%. Besides, the “Modulation of Drug Resistance (percentage increase in doxorubicin cytotoxicity in the presence of the compounds versus in their absence)” value in data set [1] is reported as −0.2%.
